According to the supplement of paper PMC10307832:

Tests used:
Test in all cases: relative viability (nuclei count vs DMSO), 5 days (fraction); higher = more cells survive
Kobe2602 + Phenformin = compound: C1=CC(=CC=C1NC(=S)NNC2=C(C=C(C=C2[N+](=O)[O-])C(F)(F)F)[N+](=O)[O-])F [Kobe2602] + N=C(N)NC(=N)NCCc1ccccc1 [Phenformin] (partner 250 µM)
In short: (§1)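 Five library-drug doses in √10 steps were combined with a fixed anchor-drug dose, or a single drug was given alone, by pin tool to lung cancer cell lines in 1536-well plates the day after seeding. Nuclei were stained and counted after 5 days. Relative viability is the nuclei count in treated wells over that in vehicle wells, taken as the median of duplicate plates.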

[1] = compound: COc1cc2nccc(Oc3ccc(NC(=O)C4(C(=O)Nc5ccc(F)cc5)CC4)cc3)c2cc1OC [Cabozantinib] + C[C@@H](Oc1cc(-c2cnn(C3CCNCC3)c2)cnc1N)c1c(Cl)ccc(F)c1Cl [Crizotinib] (partner 1 µM)
In short: as §1

[2] = compound: COc1cc2nccc(Oc3ccc(NC(=O)C4(C(=O)Nc5ccc(F)cc5)CC4)cc3)c2cc1OC [Cabozantinib] + N=C(N)NC(=N)NCCc1ccccc1 [Phenformin] (partner 250 µM)
In short: as §1

Zosuquidar + Tozasertib = compound: O[C@@H](COc1cccc2ncccc12)CN1CCN([C@@H]2c3ccccc3[C@@H]3[C@H](c4ccccc42)C3(F)F)CC1 [Zosuquidar] + Cc1cc(Nc2cc(N3CCN(C)CC3)nc(Sc3ccc(NC(=O)C4CC4)cc3)n2)n[nH]1 [Tozasertib] (partner 0.1 µM)
In short: as §1

Cell Line	relative viability (Kobe2602 + Phenformin; first compound 0.2 µM)	relative viability (Kobe2602 + Phenformin; first compound 0.6325 µM)	relative viability (Kobe2602 + Phenformin; first compound 2 µM)	relative viability (Kobe2602 + Phenformin; first compound 6.325 µM)	relative viability (Kobe2602 + Phenformin; first compound 20 µM)	relative viability ([1]; first compound 0.02 µM)	relative viability ([1]; first compound 0.06325 µM)	relative viability ([1]; first compound 0.2 µM)	relative viability ([1]; first compound 0.6325 µM)	relative viability ([1]; first compound 2 µM)	relative viability ([2]; first compound 0.02 µM)	relative viability ([2]; first compound 0.06325 µM)	relative viability ([2]; first compound 0.2 µM)	relative viability ([2]; first compound 0.6325 µM)	relative viability ([2]; first compound 2 µM)	relative viability (Zosuquidar + Tozasertib; first compound 0.01 µM)	relative viability (Zosuquidar + Tozasertib; first compound 0.03162 µM)	relative viability (Zosuquidar + Tozasertib; first compound 0.1 µM)	relative viability (Zosuquidar + Tozasertib; first compound 0.3162 µM)	relative viability (Zosuquidar + Tozasertib; first compound 1 µM)
NCI-H1437	0.335	0.282	0.279	0.297	0.352	1.02	1	0.955	0.976	0.792	0.301	0.374	0.284	0.326	0.322	0.41	0.408	0.424	0.396	0.381
EKVX	0.27	0.237	0.22	0.233	0.248	1.25	1.07	0.856	0.907	1.03	0.239	0.253	0.223	0.222	0.23	0.394	0.436	0.389	0.369	0.348
NCI-H596	0.717	0.816	0.672	0.614	0.737	1.06	1.06	0.87	1.01	0.888	0.728	0.883	0.778	0.796	0.664	0.877	–	0.986	1.16	0.905
NCI-H1993	0.51	0.453	0.503	0.501	0.515	0.798	1.04	0.682	0.856	0.884	0.448	0.521	0.511	0.473	0.476	0.564	0.5	0.578	0.595	0.541
HCC-78	0.693	0.699	0.736	0.727	0.9	0.326	0.356	0.288	0.351	0.318	–	0.733	0.335	0.383	0.383	0.413	0.329	–	0.44	0.398
NCI-H2087	0.437	0.47	0.462	0.471	0.438	0.95	0.831	0.75	0.871	0.99	0.422	0.455	0.471	0.429	0.456	0.266	–	0.27	0.228	0.218
H3255	0.339	0.359	0.422	0.315	0.334	0.922	0.927	–	0.974	0.931	0.331	0.393	–	0.346	0.37	0.734	0.737	0.718	0.711	0.604
NCI-H2126	0.552	0.53	0.521	0.513	0.494	1.03	1.04	1.01	1.04	1.02	0.443	0.555	0.539	0.544	0.586	0.815	0.861	–	0.918	0.796
LC-2-ad	0.567	0.618	0.512	0.586	0.55	0.438	0.606	0.493	0.474	0.467	–	0.68	0.574	0.604	0.546	0.461	0.491	0.51	0.522	0.463
SW 1573	0.346	0.47	0.378	0.346	0.168	0.927	0.873	0.948	0.822	0.671	0.45	0.368	0.331	0.365	0.345	0.171	0.147	0.14	0.182	0.157
EBC-1	–	–	–	–	–	0.194	0.173	0.182	0.198	0.213	–	–	–	–	–	–	–	–	–	–
HCC-15	0.482	0.494	0.443	0.43	0.363	0.877	0.956	0.828	0.873	0.811	0.366	0.532	0.512	0.478	0.491	0.257	0.323	0.416	0.223	0.321
NCI-H1650	0.483	0.57	0.395	0.388	0.366	1.02	1.23	0.911	1.04	0.911	0.434	0.556	0.395	0.43	0.376	0.43	0.426	0.478	0.469	0.371
COR-L 105	0.487	0.491	0.422	0.542	0.494	0.653	1.03	–	0.659	0.561	0.387	0.477	–	0.581	0.481	0.293	0.315	0.402	0.309	0.333
NCI-H650	0.454	0.538	0.471	0.457	0.452	0.857	0.692	0.836	0.792	0.757	–	0.497	0.454	0.465	0.404	0.795	0.748	0.739	0.803	0.791
LXF-289	0.495	0.577	0.494	0.536	0.518	0.858	0.857	0.392	0.805	0.818	0.524	0.544	0.5	0.508	0.493	0.244	0.2	0.179	0.222	0.187
NCI-H1703	–	–	–	–	–	–	0.296	0.172	0.249	0.175	–	–	–	–	–	–	–	–	–	–
SK-MES-1	0.676	0.715	0.683	0.589	0.455	1.13	1.14	1.02	1.03	0.825	0.701	0.688	0.705	0.667	0.631	0.797	1.01	0.97	0.942	0.857
